Results published in US20240108740A1, “THERAPEUTIC COMPOSITIONS INCLUDING SPN10 AND USES THEREOF” (Stealth BioTherapeutics Inc., priority 2022, published 2024).
Residues, ends and D or L forms follow the SMILES beside them.

How the values were obtained:
N2A cells = test: Example 23: caspase activity (FLICA kit); assay type: cell-based; parameters: dose or concentration left out as unconfirmed; conditions: 12 hours
Procedure: N2A cells will be grown on 96-well plates, treated with t-BHP (0.05 mM) in the presence of vehicle, peptide conjugates, aromatic-cationic peptides, or SPN10(s) with or without aromatic-cationic peptides at 37° C. for 12-24 hours. All treatments will be carried out in quadruplicate. N2A cells will be incubated with t-BHP ([…]) alone or in the presence of peptide conjugates, aromatic-cationic peptides, or SPN10(s) with or without aromatic-cationic peptides at 37° C. for 12 hours. Cells will be gently lifted from the plates with a cell detachment solution (Accutase, Innovative Cell Technologies, Inc., San Diego, CA, U.S.A.) and will be washed twice in PBS. Caspase activity will be assayed using a FLICA kit (Immunochemistry Technologies LLC, Bloomington, MN). According to the manufacturer's recommendation, cells will be resuspended (approx. 5×10^6 cells/mL) in PBS and labeled with pan-caspase inhibitor FAM-VAD-FMK for 1 hour at 37° C. under 5% CO2 while protected from light. Cells will then be rinsed to remove the unbound reagent and fixed. Fluorescence intensity in the cells will be measured by a laser scanning cytometer (Beckman-Coulter XL, Beckman Coulter, Inc., Fullerton, CA, U.S.A.) using the standard emission filters for green (FL1). For each run, 10,000 individual events will be collected and stored in list-mode files for off-line analysis.

Sprague-Dawley rats = test: Example 5: unilateral ureteral obstruction (UUO), 14 days; assay type: in vivo, rat
Procedure: UUO will be induced in Sprague-Dawley rats. The rats will be treated with saline (i.p., n=6), peptide conjugates (1 mg/kg i.p., n=6), aromatic-cationic peptides (e.g., an equivalent molar dose of aromatic-cationic peptide based on the concentration of the aromatic-cationic peptide administered in the peptide conjugate treatment group), SPN10(s) (e.g., an equivalent molar dose of SPN10 based on the concentration of SPN10 administered in the peptide conjugate treatment group), or SPN10(s) in combination with aromatic-cationic peptides (e.g., an equivalent molar dose of SPN10 based on the concentration of SPN10 administered in the peptide conjugate treatment group and an equivalent molar dose of aromatic-cationic peptide based on the concentration of aromatic-cationic peptide administered in the peptide conjugate treatment group) one day prior to induction of UUO, and once daily for 14 days after UUO induction. Rats will be sacrificed and the kidneys removed, embedded in paraffin, and sectioned. The sections will be treated with an anti-CD36 polyclonal IgG (Santa Cruz, sc-9154; diluted 1:100 with blocking serum) at room temperature for 1.5 hours. The slides will then be incubated with the second antibody conjugated with biotin (anti-rabbit IgG-B1; ABC kit, PK-6101) at room temperature for 30 min. The slides will then be treated with avidin, developed with DAB and counterstained with 10% hematoxylin. The contralateral unobstructed kidney will serve as the control for each animal.
Rats will then be sacrificed, kidneys removed, embedded in paraffin and sectioned. Slides will be incubated with anti-HNE rabbit IgG and a biotin-linked anti-rabbit IgG will be used as secondary antibody. The slides will be developed with DAB. Lipid peroxidation, which is increased by UUO, is anticipated to be reduced by treatment with peptide conjugates, aromatic-cationic peptides, or SPN10(s) (with or without aromatic-cationic peptides).
Rats will then be sacrificed, kidneys removed, embedded in paraffin and sectioned. To quantify nuclei with fragmented DNA, TUNEL assay will be performed with in situ TUNEL kit. Slides will be developed with DAB and counterstained with 10% hematoxylin. […] It is anticipated that there will be a significant increase in apoptotic cells observed in the obstructed kidney from saline-treated animals when compared to the contralateral unobstructed control.
Macrophage infiltration and interstitial fibrosis are anticipated to be prevented by treatment with peptide conjugates, aromatic-cationic peptides, or SPN10(s) (alone or in combination with aromatic-cationic peptides). Rats will be treated with either saline (n=6), peptide conjugates (1 mg/kg i.p., n=6), aromatic-cationic peptides (e.g., an equivalent molar dose of aromatic-cationic peptide based on the concentration of the aromatic-cationic peptide administered in the peptide conjugate treatment group), SPN10(s) (e.g., an equivalent molar dose of SPN10 based on the concentration of SPN10 administered in the peptide conjugate treatment group) or SPN10(s) in combination with aromatic-cationic peptides (e.g., an equivalent molar dose of SPN10 based on the concentration of SPN10 administered in the peptide conjugate treatment group and an equivalent molar dose of aromatic-cationic peptide based on the concentration of aromatic-cationic peptide administered in the peptide conjugate treatment group) one day prior to induction of UUO, and once daily for 14 days after UUO. Rats will then be sacrificed, the kidneys removed, embedded in paraffin and sectioned. Slides will be treated with monoclonal antibody for ED1 macrophage (1:75; Serotec). Horseradish peroxidase-linked rabbit anti-mouse secondary antibody (Dako) will be used for macrophage detection. Sections will then be counterstained with 10% hematoxylin. […]

mice treated with Mtox = test: Example 31: Mtox model of Parkinson's Disease; assay type: in vivo, mouse; conditions: Mtox 10 mg/kg, three doses
Procedure: Three doses of Mtox (10 mg/kg) will be given to mice (n=12) 2 hours apart. Peptide conjugates, aromatic-cationic peptides, or SPN10(s) with or without aromatic-cationic peptides will be administered 30 minutes before each Mtox injection, and at 1 and 12 hours after the last Mtox injection. Animals will be sacrificed one week later and striatal brain regions will be immunostained for tyrosine hydroxylase activity. Levels of dopamine, DOPAC and HVA levels will be quantified by high pressure liquid chromatography.

N=C(N)NCCC[C@H](NC(=O)[C@@H](N)Cc1c[nH]c2ccccc12)C(=O)N[C@@H](Cc1c[nH]c2ccccc12)C(=O)N[C@@H](CCCCN)C(N)=O [SPN10, H-L-Trp-L-Arg-L-Trp-L-Lys-NH2] (H-WRWK-NH2)
increase in caspase activity by t-BHP (N2A cells): dose-dependently inhibited | CD36 expression in tubular cells after UUO (Sprague-Dawley rats; anti-CD36 immunostaining): significant reduction in CD36 expression | HNE staining in obstructed kidney (Sprague-Dawley rats; compared to saline-treated rats): significantly less HNE staining | tubular dilation after UUO (Sprague-Dawley rats; one day prior to UUO and once daily for 14 days): Tubular dilation is also anticipated | interstitial fibrosis in obstructed kidney (Masson's trichrome) (Sprague-Dawley rats; rat, in vivo): significantly less fibrosis | lipid peroxidation in kidney after UUO (Sprague-Dawley rats; rat, in vivo): reduced | macrophage infiltration in obstructed kidney (ED1) (Sprague-Dawley rats; rat, in vivo): significantly reduced | number of apoptotic cells in obstructed kidney (TUNEL) (Sprague-Dawley rats; rat, in vivo): significantly reduced | up-regulation of CD36 associated with tubular cell apoptosis (Sprague-Dawley rats; rat, in vivo): significantly inhibited | loss of dopaminergic neurons (mice treated with Mtox): dose-dependently prevent the loss of dopaminergic neurons | striatal dopamine, DOPAC, and HVA levels (mice treated with Mtox): dose-dependently increase striatal dopamine, DOPAC, and HVA levels
